Measurements reported in US11691992B2 (Anacor Pharmaceuticals, Inc., priority 2017, dated 2023).
Read-outs that look alike come from different tables or passages of the source.

Experiments:
Type in all cases: cell-based
[1] = tested on: promastigote forms of L. major; assay: Leishmania major promastigote growth inhibition assay (Alamar Blue); settings: promastigotes, 44 hours + 4 hours Alamar Blue, read-out: IC50: I Org. promastigote Growth L. major, 2 d
Description: Example 108. Leishmania major Promastigote Growth Inhibition Assay
The promastigote assay is a microtiter plate drug sensitivity prescreen assay used to determine antileishmanial activity of candidate drugs against promastigote forms of L. major. (Shadow et al., PLOS Neglected Tropical Diseases, 2009, e311.) Alamar Blue, or resazurin, is a non-fluorescent indicator dye that is converted to bright red-fluorescent resorufin via the activity of mitochondrial reductases. As the activity of mitochondrial reductases is reduced in cells that are dead or dying, and the intensity of the fluorescence is relative to cell number, a test compound that kills or inhibits growth of a particular target cell, such as L. major, will result in a lower production of fluorescent signal. Pre-dosed microtiter drug plates for use in the promastigote drug prescreen assay were produced using sterile 384-well black optical bottom tissue culture plates (Nunc Cat #12-565-344). Candidate drugs were diluted in dimethyl sulfoxide in four 96-well plates to either 10,000 ng/ml or 1,000 ng/ml, and 4.25 μL of diluted drug was subsequently dispensed into each well of a 384-well plate. Duplicate 384 well plates were made at each test concentration (10,000 ng/mL and 1,000 ng/mL) and amphotericin B was used as a batch control. The Tecan EVO Freedom liquid handling system (Tecan US, Inc., Durham, N.C.) was used to produce all drug assay plates and conduct all pipetting operations for this assay. L. major parasites were cultured in Schneider's medium (Lonza Cat #04-351Q) supplemented with 20% heat inactivated FBS (Invitrogen Cat #16140-089). Promastigotes in early log growth phase were harvested from culture, counted, suspended at 1.32×10^5 cells/mF and 5,000 promastigotes were dispensed into each well of the 384 well plate in a volume of 38.8 μL. The 384 well plates were subsequently incubated at 28° C. for 44 hours. 8.4 μF of Alamar Blue (Promega, Cat #G8081) was added to each well, the plates were subsequently incubated at 28° C. and 5% CO2 for 4 hours and then examined for the relative fluorescence units (RFU) per well using the Tecan Genios Plus (Tecan US, Inc., Durham, N.C.) with excitation set at 560 nm and emission set at 590 nm. The relative fluorescence from each well was used to determine the percent growth inhibition of each candidate compound tested. Compounds with 50% or greater inhibition of growth were selected for further analysis to determine IC50 values.

[2] = tested on: IL3000 T. congolense (drug sensitive) strain; assay: In vitro Alamar Blue 72 h drug sensitivity assay for T. congolense; settings: Trypanosoma congolense; read-out: inhibition of T. congolense IL-3000 growth at a concentration of 1.0 μM (classes D, E)
Protocol: Example 106. In Vitro Alamar Blue 72 h Drug Sensitivity Assay for T. congolense
Compounds were tested in vitro for chemotherapeutic potency against the IL3000 T. congolense (drug sensitive) strain, using the Alamar Blue assay with several modifications. Test compounds were prepared as 10 mg/mL DMSO stocks for each assay run. Compounds were assayed in at least three separate, independent test runs and an 11-point dilution curve was used to determine the IC50 values. Bloodstream form trypanosomes were supported in HMI media containing 20% bovine serum and were incubated with test compounds for 69 h at 34° C. in a humidified atmosphere containing 5% CO2. Thereafter, 10 μL of Resazurin dye (12.5 mg in 100 mL of phosphate buffered saline, Sigma-Aldrich, Buchs, Switzerland) were added for an additional 3 h. Plates were then read using a fluorescent plate reader (Spectramax, Gemini XS, Bucher Biotec, Basel, Switzerland) using an excitation wavelength of 536 nm and an emission wavelength of 588 nm. Data points were averaged to generate sigmoidal dose-response curves and IC50 values were determined using Softmax Pro 5.2 software.

[3] = tested on: L. infantum MHOM/MA(BE)/67 amastigotes in primary peritoneal mouse macrophages; assay: Leishmania infantum intracellular amastigote assay in mouse macrophages; settings: Macrophage, 120 h, amastigotes in primary peritoneal mouse macrophages, 5 d, Giemsa staining, read-out: Inhibition of Organism Growth in Leishmania infantum MHOM/MA/BE/67, 5 d
Protocol: Example 111. Leishmania infantum Intracellular Amastigote Assay in Mouse Macrophages
L. infantum MHOM/MA(BE)/67 amastigotes were collected from the spleen of an infected donor hamster and used to infect primary peritoneal mouse macrophages. (Kaiser, M., Maes, L., Tadoori, L. P., Spangenberg, T., Ioset, J.-R. J. Biomol. Screen. 2015 20(5), 634-35.) To determine in vitro antileishmanial activity, 3×10^4 macrophages were seeded in each well of a 96-well plate. Culture medium was RPMI-1640 supplemented with L-glutamine (20 mM), 16.5 mM sodium hydrogen carbonate, and 10% fetal calf serum (FCS). After 2 d of outgrowth, 5×10^5 amastigotes/well were added and incubated for 2 h at 37° C. Prediluted samples to be tested were subsequently added, and the plates were further incubated for 5 d at 37° C. and 5% CO2. Total parasite burdens in the well were microscopically assessed after Giemsa staining and expressed as a percentage of the total burden in the blank controls without compound. In treated wells with high amastigote burdens, an overall estimate of the total burden per well was made without discrimination between the number of infected macrophages and the number of amastigotes per infected cell. In treated wells with low burdens, exact counting was performed. The 50% inhibitory concentrations (IC50s) were then generated for each dose response test using GraphPad Prism (GraphPad Software Inc., San Diego, Calif.) using the nonlinear regression (sigmoidal dose-response/variable slope) equation.

[4] = tested on: bloodstream forms of T. b. rhodesiense STIB 900; assay: T. brucei rhodesiense STIB 900 growth inhibition assay; settings: Trypanosoma brucei, bloodstream forms, 72 h, Alamar Blue, protocol of Example 110, read-out: IC50: I Org. Growth T. brucei rhodesiense STIB 900, 3 d
Description: Example 110. T. brucei rhodesiense STIB 900 Growth Inhibition Assay
The parasite strain used in this assay was isolated in 1982 from a human patient in Tanzania and after several mouse passages cloned and adapted to axenic culture conditions, ((a) Baltz, T., D. Baltz, C. Giroud, and J. Crockett. EMBO Journal, 1985, 4:1273-1277. (b) Thuita, J. K., S. M. Karanja, T. Wenzler, R. E. Mdachi, J. M. Ngotho, J. M. Kagira, R. Tidwell, and R. Brun. Acta Tropica 2008, 108:6-10.) Minimum Essential Medium (50 μl) supplemented with 25 mM HEPES, 1 g/l additional glucose, 1% MEM non-essential amino acids (100×), 0.2 mM 2-mercaptoethanol, 1 mM Na-pyruvate and 15% heat inactivated horse serum was added to each well of a 96-well microtiter plate. Serial drug dilutions of seven 3-fold dilution steps covering a range from 90 to 0.123 μg/ml were prepared. Then 10^4 bloodstream forms of T. b. rhodesiense STIB 900 in 50 μl was added to each well and the plate incubated at 37° C. under a 5% CO2 atmosphere for 72 h. 10 μl Alamar Blue (resazurin, 12.5 mg in 100 ml double-distilled water) was then added to each well and incubation continued for a further 2-4 h, (Raz, B., M. Iten, Y. Grether-Buhler, R. Kaminsky, and R. Brun. Acta Trap 1997, 68:139-47.) Then the plates were read with a Spectramax Gemini XS microplate fluorometer (Molecular Devices Cooperation, Sunnyvale, Calif., USA) using an excitation wave length of 536 nm and an emission wave length of 588 nm. Data were analyzed using the microplate reader software Softmax Pro (Molecular Devices Cooperation, Sunnyvale, Calif., USA).

CCn1nnc(C(=O)Nc2ccc3c(c2)B(O)OC3)c1C [Example 46, 1-ethyl-N-(1-hydroxy-1,3-dihydrobenzo[c][1,2]oxaborol-6-yl)-5-methyl-1H-1,2,3-triazole-4-carboxamide]
IC50 [1]: 2510 to 20000 nM

Cn1nc(C(=O)Nc2ccc3c(c2)B(O)OC3)nc1-c1ccc(Cl)cn1 [Example 77, 5-(5-Chloropyridin-2-yl)-N-(1-hydroxy-1,3-dihydrobenzo[c][1,2]oxaborol-6-yl)-1-methyl-1H-1,2,4-triazole-3-carboxamide]
inhibition at 1 µM [2]: > 75%
IC50 [3]: 3000 to 19900 nM
IC50 [4]: 100 to 300 nM

COc1cccc(-c2nc(C(=O)Nc3ccc4c(c3)B(O)OC4)nn2C)n1 [Example 75, N-(1-hydroxy-1,3-dihydrobenzo[c][1,2]oxaborol-6-yl)-5-(6-methoxypyridin-2-yl)-1-methyl-1H-1,2,4-triazole-3-carboxamide]
inhibition at 1 µM [2]: > 75%
IC50 [3]: < 3000 nM
IC50 [4]: < 100 nM

Cn1nc(C(=O)Nc2ccc3c(c2)B(O)OC3(C)C)nc1-c1ccccn1 [Example 79]
inhibition at 1 µM [2]: > 75%
IC50 [3]: 20000 to 100000 nM
IC50 ([4]; RHODESIENSE|STIB900): 310 to 10000 nM

Cn1nc(C(=O)Nc2ccc3c(c2)B(O)OC3)nc1-c1ncccc1Cl [Example 76, 5-(3-Chloropyridin-2-yl)-N-(1-hydroxy-1,3-dihydrobenzo[c][1,2]oxaborol-6-yl)-1-methyl-1H-1,2,4-triazole-3-carboxamide]
inhibition at 1 µM [2]: > 75%
IC50 [3]: 3000 to 19900 nM
IC50 [4]: 100 to 300 nM

O=C(Nc1ccc2c(c1)B(O)OC2)c1nnn(CC2CCC2)c1C(F)(F)F [Example 47, 1-(cyclobutylmethyl)-N-(1-hydroxy-1,3-dihydrobenzo[c][1,2]oxaborol-6-yl)-5-(trifluoromethyl)-1H-1,2,3-triazole-4-carboxamide]
IC50 [1]: < 600 nM
